Data taken from ChEMBL document CHEMBL1201862, “PubChem BioAssay data set” (2004).
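96-well plates; 48 h exposure; 5 concentrations. Endpoints by linear interpolation between flanking doses. Not reached: highest tested concentration assigned. GI50 = concentration required for 50% inhibition of growth.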 Active and inactive are the calls of the source. Rule as the data show it: active = GI50 up to about 1.1 µM and inactive = higher.

What was measured:
Experiment in all cases: growth of human tumour cells (NCI), 48 h
[1] = tested on: CAKI-1
[2] = tested on: COLO 205
[3] = tested on: HCT-116
[4] = tested on: HCT-15
[5] = tested on: Hs-578T
[6] = tested on: Malme-3M
[7] = tested on: NCI-H226
[8] = tested on: NCI-H522
[9] = tested on: NCI/ADR-RES
[10] = tested on: PC-3
[11] = tested on: SF-268
[12] = tested on: SF-295
[13] = tested on: SF-539
[14] = tested on: SK-MEL-28
[15] = tested on: SK-MEL-2
[16] = tested on: MOLT-4
[17] = tested on: SR

Row | Structure (SMILES) | GI50 [1] | GI50 [2] | GI50 [3] | GI50 [4] [µM] | GI50 [5] | GI50 [6] | GI50 [7] | GI50 [8] | GI50 [9] | GI50 [10] | GI50 [11] | GI50 [12] | GI50 [13] | GI50 [14] | GI50 [15] | GI50 [16] | GI50 [17]
1 | O=C(Nc1cccc2ccccc12)c1ccccc1 | 99.1 µM (inactive) | 97.7 µM (inactive) | > 100 µM (inactive) | 98.2 | > 100 µM (inactive) | 88.3 µM (inactive) | > 100 µM (inactive) | 68.7 µM (inactive) | > 100 µM (inactive) | 72.3 µM (inactive) | > 100 µM (inactive) | > 100 µM (inactive) | 64.7 µM (inactive) | > 100 µM (inactive) | 91.2 µM (inactive) |  | 
2 | O=C(CCC(=O)CC(O)(C(F)(F)F)C(F)(F)F)CC(O)(C(F)(F)F)C(F)(F)F |  | 29.2 µM (inactive) | 46.9 µM (inactive) | 35 | 29.4 µM (inactive) | 42.1 µM (inactive) | 18.8 µM (inactive) |  | 61.7 µM (inactive) |  | 71.6 µM (inactive) | 32.1 µM (inactive) | 67.6 µM (inactive) | > 100 µM (inactive) |  | 41.3 µM (inactive) | 47.9 µM (inactive)
3 | CN1CCN(C2CC(=O)c3c(Cl)sc(Cl)c32)CC1 (stereo unspecified) | 21.8 µM (inactive) | 20.7 µM (inactive) | 6.92 µM (inactive) | 10.4 |  | 23.9 µM (inactive) | > 42.8 µM (inactive) | 4.8 µM (inactive) | 16.4 µM (inactive) | 29.4 µM (inactive) | 8.85 µM (inactive) | 21.4 µM (inactive) | 17.3 µM (inactive) | 7.57 µM (inactive) | 19.1 µM (inactive) | 5.48 µM (inactive) | 4 µM (inactive)
4 | c1cc2c(c(-c3c4ccccc4nc4ccccc34)c1)CC1(CC2)OCCO1 | > 100 µM (inactive) | > 100 µM (inactive) | > 100 µM (inactive) | > 100 |  | > 100 µM (inactive) | > 100 µM (inactive) | > 100 µM (inactive) | > 100 µM (inactive) | > 100 µM (inactive) | > 100 µM (inactive) | > 100 µM (inactive) | > 100 µM (inactive) | > 100 µM (inactive) | > 100 µM (inactive) | > 100 µM (inactive) | 
5 | O=C1C=CC(=O)c2c1ccc1c3ccccc3n(Cc3ccc([N+](=O)[O-])cc3)c21 | > 100 µM (inactive) | > 100 µM (inactive) | > 100 µM (inactive) | 70.1 |  |  | > 100 µM (inactive) | 26.6 µM (inactive) | > 100 µM (inactive) | > 100 µM (inactive) | > 100 µM (inactive) | > 100 µM (inactive) | > 100 µM (inactive) | > 100 µM (inactive) |  | 20.3 µM (inactive) | 13.8 µM (inactive)
6 | COC(=O)/C=C\C(C#N)(C#N)/N=C/c1cccc(OC)c1 | 1.92 µM (inactive) | 2.15 µM (inactive) | 3.44 µM (inactive) | 1.93 | 18.1 µM (inactive) | 1.71 µM (inactive) | 14.3 µM (inactive) | 1.38 µM (inactive) | 14.4 µM (inactive) | 15.8 µM (inactive) | 17.2 µM (inactive) | 32.7 µM (inactive) | 2.53 µM (inactive) | 14.3 µM (inactive) | 17.1 µM (inactive) | 1.9 µM (inactive) | 
7 | CC(=O)Oc1ccc2cc(Oc3ccccc3)c(=O)oc2c1 | > 100 µM (inactive) |  | > 100 µM (inactive) | 53.3 | > 100 µM (inactive) | > 100 µM (inactive) | > 100 µM (inactive) | 30.5 µM (inactive) |  | > 100 µM (inactive) | > 100 µM (inactive) | > 100 µM (inactive) | > 100 µM (inactive) | > 100 µM (inactive) |  |  | > 100 µM (inactive)
8 | CCOC(=O)C1C(c2ccccc2)C2(C#N)C(=N)OC1(C)C2(C#N)C#N (stereo unspecified) | 6.61 µM (inactive) | 16.4 µM (inactive) | 16.3 µM (inactive) | 37.3 | 29.5 µM (inactive) | 20.5 µM (inactive) | 24.3 µM (inactive) |  | 27.1 µM (inactive) | 25.6 µM (inactive) | 22.4 µM (inactive) | 36.2 µM (inactive) | 18.1 µM (inactive) |  | 20.7 µM (inactive) | 21.1 µM (inactive) | 
9 | CN(C)C1(N(C)C)Oc2c(c(=O)n(C)c(=O)n2C)C(c2ccc(Br)cc2)C1(F)F (stereo unspecified) | > 100 µM (inactive) | > 100 µM (inactive) | > 100 µM (inactive) | > 100 |  |  | > 100 µM (inactive) |  | > 100 µM (inactive) | > 100 µM (inactive) | > 100 µM (inactive) | > 100 µM (inactive) |  | > 100 µM (inactive) | > 100 µM (inactive) | > 100 µM (inactive) | 
10 | Cn1nc2ccc3nccc(N4CCN(CCO)CC4)c3c2n1 |  | > 100 µM (inactive) | > 100 µM (inactive) | 4.02 | > 100 µM (inactive) | > 100 µM (inactive) | > 100 µM (inactive) | > 100 µM (inactive) |  | 19.3 µM (inactive) | > 100 µM (inactive) | > 100 µM (inactive) |  | > 100 µM (inactive) | > 100 µM (inactive) | 31.7 µM (inactive) | 
11 | COC(=O)C1CCC(=O)N1C(c1cc(OC)c(OC)c(OC)c1)c1cc(OC)c(OC)c(OC)c1 (stereo unspecified) |  |  | > 100 µM (inactive) | > 100 | > 100 µM (inactive) |  |  | > 100 µM (inactive) |  | > 100 µM (inactive) | > 100 µM (inactive) | > 100 µM (inactive) | > 100 µM (inactive) | > 100 µM (inactive) | > 100 µM (inactive) | > 100 µM (inactive) | > 100 µM (inactive)
12 | O=C(O)CCC(NC(=O)c1ccc(Nc2nc3ccccc3nc2C(=O)O)cc1)C(=O)O (stereo unspecified) | > 100 µM (inactive) | > 100 µM (inactive) | > 100 µM (inactive) |  | > 100 µM (inactive) | > 100 µM (inactive) |  | > 100 µM (inactive) | > 100 µM (inactive) |  | > 100 µM (inactive) | > 100 µM (inactive) | > 100 µM (inactive) | > 100 µM (inactive) | > 100 µM (inactive) | > 100 µM (inactive) | > 100 µM (inactive)
13 | CC1=C(OC2OC(CO)C(O)C(O)C2O)C(=O)C[C@H]2C1=CC[C@@H]1[C@@]2(C)C(=O)C[C@]2(C)[C@@H]([C@@](C)(O)C(=O)CCC(C)(C)O)[C@H](O)C[C@@]12C (stereo partly specified) | > 100 µM (inactive) | > 100 µM (inactive) | > 100 µM (inactive) | > 100 |  | > 100 µM (inactive) | > 100 µM (inactive) | > 100 µM (inactive) | > 100 µM (inactive) | > 100 µM (inactive) | > 100 µM (inactive) | > 100 µM (inactive) | > 100 µM (inactive) | > 100 µM (inactive) | > 100 µM (inactive) | > 100 µM (inactive) | > 100 µM (inactive)
14 | O=[N+]([O-])c1ccc2nc3ccccc3cc2c1 | 0.0149 µM (active) | 3.56 µM (inactive) | 1.65 µM (inactive) | 1.37 | 3.21 µM (inactive) | 2.9 µM (inactive) | 2.45 µM (inactive) | 2.81 µM (inactive) | 1.51 µM (inactive) | 1.95 µM (inactive) | 6.44 µM (inactive) |  | 2.1 µM (inactive) | 2.57 µM (inactive) | 4.73 µM (inactive) | < 0.01 µM (active) | 
15 | CCOC(=O)c1[nH]c2nc(SC)nc(NC)c2c1N | > 100 µM (inactive) | > 100 µM (inactive) | > 100 µM (inactive) | 84.1 | > 100 µM (inactive) | > 100 µM (inactive) | 42.8 µM (inactive) | 51.4 µM (inactive) | 59.6 µM (inactive) | > 100 µM (inactive) | > 100 µM (inactive) | > 100 µM (inactive) |  | > 100 µM (inactive) | > 100 µM (inactive) | 68.2 µM (inactive) | 
16 | CC(C)C1=CC23CCC4C(C)(C(=O)O)CCCC4(C)C2CC1C1C(=O)N(c2cccc(N4C(=O)C5C6CC7C8(C)CCCC(C)(C(=O)O)C8CCC7(C=C6C(C)C)C5C4=O)c2)C(=O)C13 (stereo unspecified) |  | 10.6 µM (inactive) | 9.57 µM (inactive) | 11.4 | 3.77 µM (inactive) | 17 µM (inactive) | 16.6 µM (inactive) | 14.2 µM (inactive) |  | 4.66 µM (inactive) | 12 µM (inactive) |  | 9.08 µM (inactive) | 9.35 µM (inactive) | 15.7 µM (inactive) | 11.1 µM (inactive) | 9.55 µM (inactive)
17 | c1ccc2c(c1)OC(N1CCCC1)c1cnc(N3CCCC3)nc1-2 (stereo unspecified) | 20.9 µM (inactive) | 31.3 µM (inactive) | 39.2 µM (inactive) | 29.7 | 30.5 µM (inactive) | 40.7 µM (inactive) | 54.2 µM (inactive) |  |  | 28.7 µM (inactive) | 29.4 µM (inactive) | 30.4 µM (inactive) | 68.1 µM (inactive) | 79.6 µM (inactive) |  | 24 µM (inactive) | 29.7 µM (inactive)
18 | NC1=NC(=O)[C@H](Cc2c[nH]c3ccccc23)N1C(=O)OCc1ccccc1 | > 100 µM (inactive) | > 100 µM (inactive) | 57.9 µM (inactive) | > 100 | 44.9 µM (inactive) | 68.7 µM (inactive) | 84.5 µM (inactive) | 37 µM (inactive) | > 100 µM (inactive) | 46 µM (inactive) | 73.8 µM (inactive) | 75.3 µM (inactive) |  | < 0.01 µM (active) | > 100 µM (inactive) | 28.7 µM (inactive) | 
19 | C/C(=N\NC(=O)c1ccncc1)c1ccccc1F | > 10 µM (inactive) | > 10 µM (inactive) | > 10 µM (inactive) | > 10 |  | > 10 µM (inactive) | > 10 µM (inactive) |  | > 10 µM (inactive) | > 10 µM (inactive) | > 10 µM (inactive) | > 10 µM (inactive) | > 10 µM (inactive) | > 10 µM (inactive) | > 10 µM (inactive) | > 10 µM (inactive) | > 10 µM (inactive)
